Assay results published in patent publication US11806351B2, “Use of coenzyme factor for activation of ATP production in cell” (TERA STONE Co., Ltd, priority 2018, dated 2023).

Columns and labels:
[1] = tested on: human glioma U251 cells (Sig1-R transfected cells); assay: intracellular ATP concentration in human glioma U251 cells; assay type: cell-based
Procedure: To cultured human glioma US251 cells (Sig1-R transfected cells) were added Specimens 1 and 2, respectively and intercomparison was performed between intracellular ATP concentration after addition and that without addition (Cont.). […] It is to be noted that fluorescence measurement was performed 6 hours after the administration of the specimens.

[2] = lipophilicity, hydrophobicity and stability; assay type: physicochemical
[3] = tested on: mitochondrial Ca^2+ concentration in cerebral cortex and hippocampal neurons; assay: K+ depolarization-induced mitochondrial Ca2+ increase in brain slices after intraperitoneal administration; assay type: in vivo, C57BL/6N mice
Procedure: One of adult C57BL/6N mice (from 10 to 17 weeks old, weight: from 28 to 31 g) was intraperitoneally administered with physiological saline (Control) and the other one with Specimen 3 (10 μg/kg). After 22 hours, a thin brain slice preparation of each mouse including the cortex and the hippocampus was made. Depolarization of a cellular membrane was caused by the addition of 80 mM KCl (80K) to an extracellular fluid and an increase in mitochondrial Ca^2+ concentration resulting therefrom was measured by a fluorescent method with Rhod-2 (Note 1). Positive participation of Specimen 3 to the ATP activity in mitochondria was indirectly verified (Note 3) by using, as an index, how the Ca^2+ concentration to be increased by 80K (Note 2) is suppressed by Specimen 3 in the brain slice.
(Note 1) Rhod-2: Ca^2+ fluorescent dye selectively incorporated in mitochondria
(Note 2) The depolarization of the neuronal membrane by 80K occurs due to both the flow of Ca^2+ from the outside to the inside of the cell and the release of Ca^2+ from an intracellular Ca store. The free Ca^2+ which has increased in the cell easily enters the mitochondria, an intracellular independent organ.
(Note 3) The free Ca^2+ which has increased in the neuronal cytoplasm due to 80K stimulation-induced depolarization speedily and immediately transmits into the mitochondria from the cytoplasm. A decrease in the mitochondrial free Ca^2+ concentration caused by the specimen occurs because the free Ca^2+ is scooped out of the cell by an outward Ca pump present in the neuron cytoplasm membrane or adsorption and fixing to a portion inside the mitochondria. Energy for it is supplied from ATP produced in the mitochondria. Based on the results thus obtained, intraperitoneally injected Specimen 3 passes from the blood to glia (astrocyte) cells and is then, incorporated in the mitochondria in the cerebral cortex or hippocampal neuron, by which ATP production in the mitochondria is activated and neurons are activated. […]
Fluorescence measurement results of a mitochondrial Ca^2+ increase are plotted along the ordinate.

hippocampal neurons = assay: number of branches of hippocampal neuron dendrite, Specimens 5 to 11; assay type: cell-based, ICR mouse; conditions: 0.3 μM added once on culture day 1; MAP2 antibody culture day 4
Procedure: Hippocampal neurons were collected from the juvenile (Day 0 after birth) ICR mouse brain and cultured on a culture dish.
Each specimen was added once to the cells in the initial growth stage (on culture day 1); the resulting cells were immunostained with a MAP2 antibody three days later (on culture day 4), and the number of branches of the dendrite was quantified.
The measurement was performed by drawing 20 μm to 100 μm concentric circles (not shown) at an interval of 10 μm with a soma as a center and counting the number of dendrites crossing the circles.
A line graph of the number of dendrite crossings counted for each distance from the soma was drawn and a Student's t-test, paired (t-test, two tailed distribution) was carried out using an area under the line graph (Area under the Curve: AUC).
When the number of cases of a specimen was sufficient, the test was performed while eliminating the maximum and minimum values. The concentrations of the specimens to be added were each 0.3 μM.

[4] = tested on: mitochondrial calcium concentration; assay: mitochondrial calcium concentration in brain slice preparations exposed to 80K ACSF, 24 h after subcutaneous administration; assay type: in vivo, mouse (C57B/6NL)
Procedure: (§1) Formation of brain slice preparation and measurement of calcium concentration: Used was a whole brain half-cut preparation obtained by cutting a whole brain slice (300 μm) of a mouse (C57B/6NL), pretreated with Specimen 1 for 24 hours by subcutaneous administration, at a median line. […] The resulting preparation was placed in a chamber provided on a stage of an inverted fluorescence microscope (Olympus IX71), covered with a piece of black cotton, fixed with a platinum ring, and refluxed (70 ml/hr) in ACSF aerated with 95% O2 and 5% CO2. A fluorescent image of the preparation was acquired using a 4× objective lens and respective images of the hippocampal ventral part and cerebral cortex temporal region were obtained in one screen. For the measurement of a mitochondrial calcium concentration, a change in intensity of red fluorescence (>600 nm) caused by excitation light at 580 nm was determined and for the measurement of a cytoplasmic calcium concentration, a ratio of fluorescence (>500 nm) between excitation at 360 nm and that at 380 nm was determined. A hippocampal CA1 site and a cerebral cortex were used as two regions of interest (ROI).
(§2) In water was dissolved β-NMN to give a 10 mg/kg, 30 mg/kg, or 100 mg/kg solution; Specimen 1 was dissolved in an alcohol to give a solution of 1 mg/ml and then the resulting solution was diluted with water to give a 0.01 mg/kg, 0.1 mg/kg or 1.0 mg/kg solution; and they were subcutaneously administered to mice 24 hours before the formation of the preparation (0.1 ml/10 g).
(§3) In the present test, an operation of exposing the brain preparations formed from mice administered with two drugs having respective concentrations to isotonic 80 mM KCl-ACSF (artificial cerebrospinal fluid) for 5 minutes and then returning them in normal ACSF for 5 minutes was performed three successive times to give a severe calcium load to the preparations. Variations in cytoplasmic and mitochondrial calcium concentrations at that time were measured.
FIG. 31A to FIG. 32C show the quantification results of the effects of β-NMN and Specimen 1 (TND1128) at each concentration. In FIG. 31A to FIG. 32C, FIG. 31A and FIG. 32A show the results of calculating a mitochondrial calcium concentration, as AUC (Area under the curve), for 35 minutes from 5 minutes after starting of the experiment by administration to three times exposure to 80K-ACSF and 5-minute washing (refer to FIG. 37). FIG. 31B. FIG. 31C, FIG. 32B and FIG. 32C show the drug effects on 5-minute 80K administration and 5-minute subsequent washing (1st: from 5 minutes to 15 minutes, 2nd: from 15 minutes to 25 minutes, and 3rd: from 25 minutes to 35 minutes) in the cerebral cortex (CTX) and the hippocampus (CA1), respectively (refer to FIG. 37). A significant difference test was performed using Tukey's method.

[5] = tested on: cytoplasmic calcium concentration; assay: cytoplasmic calcium concentration in brain slice preparations exposed to 80K ACSF, 24 h after subcutaneous administration; assay type: in vivo, mouse (C57B/6NL)
Procedure: as §1, §2, §3

Row | SMILES | melting point | number of branches of hippocampal neuron dendrite (AUC of dendrite crossings, t-test vs control) (hippocampal neurons) | further results
1 | CCCCn1c2nc(=O)n(-c3ccccc3)c(=O)c-2cc2c1C=C1CC[C@H]3[C@@H]4CC[C@H](O)[C@@]4(C)CC[C@@H]3[C@@]1(C)C2 | 200 °C |  | 
2 | C[C@]12CC[C@H]3[C@@H](CCC4=Cc5c(cc6c(=O)n(-c7ccccc7)c(=O)nc-6n5Cc5ccccc5)C[C@@]43C)[C@@H]1CC[C@@H]2O | 224 °C |  | 
3 | C[C@]12CC[C@H]3[C@@H](CCC4=Cc5c(cc6c(=O)n(-c7ccccc7)c(=O)nc-6n5-c5ccccc5)C[C@@]43C)[C@@H]1CC[C@@H]2O | 257 °C |  | 
4 | CCn1c2nc(=O)n(C)c(=O)c-2cc2c1C=C1CC[C@H]3[C@@H]4CC[C@H](O)[C@@]4(C)CC[C@@H]3[C@@]1(C)C2 | 260 °C (dec.) |  | 
5 | Cn1c(=O)nc2n(Cc3ccccc3)c3c(cc-2c1=O)C[C@@]1(C)C(=C3)CC[C@H]2[C@@H]3CC[C@H](O)[C@@]3(C)CC[C@@H]21 | 215 °C |  | 
6 | Cn1c(=O)nc2n(-c3ccccc3)c3c(cc-2c1=O)C[C@@]1(C)C(=C3)CC[C@H]2[C@@H]3CC[C@H](O)[C@@]3(C)CC[C@@H]21 | 215 °C (dec.) |  | 
7 | CCCCn1c2nc(=O)n(C)c(=O)c-2cc2ccccc21 [Specimen 2] |  |  | effectiveness on ATP production compared between specimens ([1]; 6 hours after administration): more effective than Specimen 1; ATP production amount (intracellular ATP concentration vs without addition) ([1]; fluorescence measurement 6 hours after administration): significantly increased the ATP production amount; lipophilicity compared with Specimen 1 [2]: higher lipophilicity
8 | CCCCn1c2nc(=O)n(C)c(=O)c-2cc2c1C=C1CCC3C(CCC4(C)C(O)CCC34)C1(C)C2 (stereo not drawn) [Specimen 3, 8′-n-Butyl-5′-deaza-17β-hydroxy-3′-methylandrost-2,4-dieno[2,3-g]pteridine-2′,4′(3′H,8′H)-dione] |  |  | decrease of 80K depolarization-induced increase in mitochondrial Ca2+ concentration, cortex and hippocampal neurons ([3]; 10 μg/kg i.p. pretreatment in vivo): markedly and at the maximum; variations of mitochondrial Ca2+ concentration on 80K extracellular fluid, cerebral cortex neurons ([3]; 10 μg/kg i.p., slice made 22 hours after injection): suppression of the Ca^2+ concentration increase and a faster recovery from the Ca^2+ concentration increased by 80K depolarization can be observed; dose at which the maximum inhibitory effect on mitochondrial Ca2+ concentration increase is attained, hippocampal neurons ([3]; i.p., 10 μg/kg and 10 mg/kg compared, n=3 slices): 0.01 mg/kg
9 | CCn1c2nc(=O)n(C)c(=O)c-2cc2c(=O)n(C)c(=O)[nH]c21 [Specimen 5] |  | an effect on dendrite elongation is recognized | 
10 | O=c1nc2n(-c3ccc(Cl)cc3)c3[nH]c(=O)n(-c4ccccc4)c(=O)c3cc-2c(=O)n1-c1ccccc1 [Specimen 6] |  | an effect on dendrite elongation is recognized | 
11 | Cn1c2nc(=O)n(C)c(=O)c-2cc2c1C=C1CCC3C(CCC4(C)C(O)CCC34)C1(C)C2 (centres unmarked) [Specimen 7] |  | a statistically significant difference is recognized (p<0.05) | 
12 | CCn1c2nc(=O)n(-c3ccccc3)c(=O)c-2cc2c1C=C1CCC3C(CCC4(C)C(O)CCC34)C1(C)C2 (stereo not drawn) [Specimen 8, 5′-Deaza-8′-ethyl-17β-hydroxy-3′-phenylandrost-2,4-dieno[2,3-g]pteridine-2′,4′(3′H, 8′H)-dione] |  | an effect on dendrite elongation is recognized | 
13 | CC(C)CCCC(C)C1CCC2C3CCC4=Cc5c(cc6c(=O)n(C)c(=O)nc-6n5C)CC4(C)C3CCC12C (centres unmarked) [Specimen 9] |  | an effect on dendrite elongation is recognized | 
14 | Cc1ccc(-n2c3nc(=O)n(C)c(=O)c-3cc3c2C=C2CCC4C(CCC5(C)C(C(C)CCCC(C)C)CCC45)C2(C)C3)cc1C (centres unmarked) [Specimen 10] |  | an effect on dendrite elongation is recognized | 
15 | Cc1ccc(-n2c3nc(=O)n(-c4ccccc4)c(=O)c-3cc3c2C=C2CCC4C(CCC5(C)C(C(C)CCCC(C)C)CCC45)C2(C)C3)cc1C (centres unmarked) [Specimen 11] |  | a statistically significant difference is recognized (p<0.05) | 
16 | NC(=O)c1ccc[n+]([C@@H]2O[C@H](COP(=O)([O-])O)[C@@H](O)[C@H]2O)c1 [β-NMN, Nicotinamide mononucleotide, reference compound] |  |  | physiological response of the preparations under 80K-ACSF stimulation (mitochondrial and cytoplasmic Ca2+ variations) ([4]; 100 mg/kg β-NMN, 1 mg/kg Specimen 1): the preparations can maintain a markedly stable physiological response; mitochondrial protective function / function stabilizing effect ([4]; 24 hours after administration): induces significant mitochondrial protective function; mitochondrial calcium concentration as AUC, cerebral cortex (CTX) and hippocampus (CA1) ([4]; s.c. 24 h pretreatment, within the dose range studied, Tukey's method): a dose response relationship; mitochondrial Ca2+ increase on three times 80K ACSF exposure (time course) ([4]; s.c. 24 h pretreatment, β-NMN 10, 30, 100 mg/kg, Specimen 1 0.01, 0.1, 1.0 mg/kg): dose-dependently suppress a mitochondrial Ca^2+ increase; effect on drastic increase in cytoplasmic Ca2+ concentration caused by 80K-ACSF ([5]; s.c. 24 h pretreatment): no significant effect; quantified cytoplasmic Ca2+ (AUC), significant difference ([5]; s.c. 24 h pretreatment, all doses): a significant difference was not observed at concentrations other than that of the group administered with 10 mg/kg of β-NMN; recovery of cytoplasmic calcium concentration variations at each 80K-ACSF administration ([5]; β-NMN 30 or 100 mg/kg, Specimen 1 0.01 to 1.0 mg/kg, s.c. 24 h): show similar recovery
